Consider six compounds from patent EP0056152B1, “Process for the after-treatment of linen” (Henkel Kommanditgesellschaft auf Aktien, priority 1981, dated 1982).

Common to all, as to assay: Agar plate test with treated textile pieces (inhibition zone)
Common to all, as to format: cell-based

For one assay, the system named is Microsporum gypseum. Particulars: Nannizzia gypsea, 30°C, read-out: Hemmhof in mm um das Gewebe; for zone of inhibition at 100 µg/mL: azole 0,1 g/l in liquor with 3 g/l fabric softener; for zone of inhibition at 200 µg/mL: azole 0,2 g/l in liquor with 3 g/l fabric softener. On the procedure: (§1) Zur Prüfung der antimikrobiellen Wirksamkeit wurde die erfindungsgemäße Ausrüstung der Textilien wie folgt vorgenommen: • 2 x 2 cm große Textilstücke aus Baumwollköper (BW), Wolle (WO) und Nylon (NY) wurden in einer Behandlungsflotte von 20°C 10 Minuten lang bewegt und anschließend bei Raumtemperatur getrocknet. Der Behandlungsflotte waren verschiedene Azolverbindungen in unterschiedlicher Konzentration (s. Tabelle) und 3 g pro 1 Waschflotte eines handelsüblichen Wäscheweichspülmittels mit einem Gehalt an 5 Gew.-% Dimethyl-ditalgalkyl-ammoniumchlorid als textilweichmachender quartärer Ammoniumverbindung zugesetzt. Die Textilproben wurden auf mit unterschiedlichen Testkeimen beimpfte Agarplatten aufgelegt, bis zum Eintritt eines vollen Wachstums bei 30°C bebrütet und dann die antimikrobiellen Effekte abgelesen. Dabei bedeuten: • + = volles Wachstum • 0 = kein Hemmhof, kein Wachstum auf den Läppchen • Zahl = Hemmhof in mm um das Gewebe • (Zahl) = Größe des Hemmhofes mit diffuser Begrenzung in mm.
(§2) Zum Vergleich wurde die antimikrobielle Wirkung eines azolverbindungsfreien Wäschenachbehandlungsmittels geprüft. Die Ergebnisse sind in der folgenden Tabelle aufgeführt: […]

The subject of a further assay is Trichophyton rubrum. Particulars: 30°C, read-out: Hemmhof in mm um das Gewebe; for zone of inhibition at 100 µg/mL: azole 0,1 g/l in liquor with 3 g/l fabric softener; for zone of inhibition at 200 µg/mL: azole 0,2 g/l in liquor with 3 g/l fabric softener. As to the method:
as §1, §2

Assay [1] has as its system Trichophyton mentagrophytes. As to conditions: 30°C; for zone of inhibition at 100 µg/mL: azole 0,1 g/l in liquor with 3 g/l fabric softener; for zone of inhibition at 200 µg/mL: azole 0,2 g/l in liquor with 3 g/l fabric softener; for zone of inhibition at 1000 µg/mL: azole 1 g/l in liquor with 3 g/l fabric softener. As to the method: as §1
Zum Vergleich wurde die antimikrobielle Wirkung eines azolverbindungsfreien Wäschenachbehandlungsmittels geprüft. Die Ergebnisse sind in der folgenden Tabelle aufgeführt:
(§3) In einer weiteren Versuchsreihe wurden andere Azolverbindungen bei einer Anwendungskonzentration von 1 g/I Behandlungsflotte gemeinsam mit dem Wäschebehandlungsmittel der Beispiele 1 bis 7 (Konzentration 3 g/I Behandlungsflotte) eingesetzt. Auch hier wurde ein Vergleichsversuch ohne Azolverbindung durchgeführt.

A further assay deals with Epidermophyton floccosum. Particulars: azole 1 g/l in liquor with 3 g/l fabric softener, 30°C. As to the method: as §1, §3
[2] abbreviates: BW (Baumwollköper), read-out: Hemmhof in mm um das Gewebe.
Setting [3] is: NY (Nylon), read-out: Hemmhof in mm um das Gewebe.
Setting [4] is: WO (Wolle), read-out: Hemmhof in mm um das Gewebe.
The mark [5] stands for this setting: value in brackets, BW (Baumwollköper), read-out: Größe des Hemmhofes mit diffuser Begrenzung in mm.
Where [6] appears, read: value in brackets, NY (Nylon), read-out: Größe des Hemmhofes mit diffuser Begrenzung in mm.
The mark [7] stands for this setting: value in brackets, WO (Wolle), read-out: Größe des Hemmhofes mit diffuser Begrenzung in mm.

Like-named read-outs stand apart in the source and are kept apart here.

Regarding `O=[N+]([O-])CC(c1c(Cl)cccc1Cl)n1cnc(Cl)n1` (centres unmarked) [compound 046], the zone of inhibition at 100 µg/mL in the assay on Microsporum gypseum (BW (Baumwollköper)) turned out to be 14 mm; with Microsporum gypseum (NY (Nylon)), 8 mm; in the assay with Microsporum gypseum (WO (Wolle)), 8 mm; in the assay on Trichophyton rubrum (BW (Baumwollköper)) it was 9 mm; in the assay with Trichophyton rubrum (NY (Nylon)), 4 mm; with Trichophyton rubrum (WO (Wolle)), 13 mm. Moreover, the zone of inhibition at 100 µg/mL in assay [1] (setting [2]) came out at 7 mm; in assay [1] (setting [3]) it was 5 mm; in assay [1] (setting [4]), 13 mm. Further, the zone of inhibition at 200 µg/mL in the assay with Microsporum gypseum (BW (Baumwollköper)) came out at 16 mm; with Microsporum gypseum (NY (Nylon)), 10 mm; in the assay with Microsporum gypseum (WO (Wolle)) it was 10 mm; in the assay on Trichophyton rubrum (BW (Baumwollköper)) it was 12 mm; in the assay with Trichophyton rubrum (NY (Nylon)) it was 7 mm; in the assay on Trichophyton rubrum (WO (Wolle)) it was 7 mm. Further, the values for the zone of inhibition at 200 µg/mL in assay [1] (setting [2]), in assay [1] (setting [3]) and in assay [1] (setting [4]) were 13 mm, 10 mm and 13 mm, respectively.

For the compound `CC(C)(C)C(c1ccccc1)(c1ccccc1)n1ccnc1` [compound 065], the zone of inhibition at 100 µg/mL turned out to be 26 mm in the assay on Microsporum gypseum (BW (Baumwollköper)); 14 mm in the assay with Microsporum gypseum (NY (Nylon)); 21 mm with Microsporum gypseum (WO (Wolle)); 25 mm in the assay with Trichophyton rubrum (BW (Baumwollköper)); 18 mm in the assay on Trichophyton rubrum (NY (Nylon)); 23 mm with Trichophyton rubrum (WO (Wolle)). For the same compound, the zone of inhibition at 100 µg/mL in assay [1] (setting [2]) turned out to be 26 mm; in assay [1] (setting [3]), 25 mm; in assay [1] (setting [4]), 25 mm. Further, the zone of inhibition at 200 µg/mL in the assay with Microsporum gypseum (BW (Baumwollköper)) turned out to be 28 mm; with Microsporum gypseum (NY (Nylon)) it was 25 mm; in the assay with Microsporum gypseum (WO (Wolle)), 25 mm; in the assay with Trichophyton rubrum (BW (Baumwollköper)), 29 mm; in the assay with Trichophyton rubrum (NY (Nylon)), 23 mm; with Trichophyton rubrum (WO (Wolle)), 28 mm. For the same compound, the zone of inhibition at 200 µg/mL worked out at 28 mm in assay [1] (setting [2]), 26 mm in assay [1] (setting [3]) and 28 mm in assay [1] (setting [4]).

Take `O=[N+]([O-])CC(c1c(Cl)cccc1Cl)n1cncn1` (centres unmarked) [compound 045]: the zone of inhibition at 100 µg/mL with Microsporum gypseum (BW (Baumwollköper)) turned out to be 10 mm; with Microsporum gypseum (NY (Nylon)) it was 7 mm; with Microsporum gypseum (WO (Wolle)), 10 mm; in the assay with Trichophyton rubrum (BW (Baumwollköper)), 12 mm; with Trichophyton rubrum (NY (Nylon)), 7 mm; in the assay with Trichophyton rubrum (WO (Wolle)) it was 10 mm. Also, the zone of inhibition at 100 µg/mL amounted to 11 mm in assay [1] (setting [2]), 8 mm in assay [1] (setting [3]) and 8 mm in assay [1] (setting [4]). Also, the zone of inhibition at 200 µg/mL in the assay on Microsporum gypseum (BW (Baumwollköper)) was 20 mm; with Microsporum gypseum (NY (Nylon)) it was 14 mm; in the assay on Microsporum gypseum (WO (Wolle)), 12 mm; in the assay with Trichophyton rubrum (BW (Baumwollköper)), 25 mm; with Trichophyton rubrum (NY (Nylon)), 7 mm; in the assay on Trichophyton rubrum (WO (Wolle)), 18 mm. Moreover, the zone of inhibition at 200 µg/mL in assay [1] (setting [2]) stood at 16 mm; in assay [1] (setting [3]) it was 12 mm; in assay [1] (setting [4]), 11 mm.

On to `Cc1ccccc1C1(n2ccnc2)c2ccccc2-c2ccccc21` [compound 009], for which the zone of inhibition at 1000 µg/mL was 7 mm in assay [1] (setting [2]); 10 mm in assay [1] (setting [3]); 9 mm in assay [1] (setting [4]); 10 mm in assay [1] (setting [5]); 14 mm in assay [1] (setting [6]); 14 mm in assay [1] (setting [7]). Moreover, the zone of inhibition at 1000 µg/mL in the assay on Epidermophyton floccosum (setting [2]) worked out at 10 mm; with Epidermophyton floccosum (setting [3]), 5 mm; with Epidermophyton floccosum (setting [4]), 11 mm; with Epidermophyton floccosum (setting [5]), 13 mm; with Epidermophyton floccosum (setting [6]) it was 10 mm; in the assay with Epidermophyton floccosum (setting [7]), 17 mm.

In the case of `C#CC(c1ccccc1)(c1ccccc1)n1ccnc1` [compound 001], the zone of inhibition at 1000 µg/mL in assay [1] (setting [2]) was 15 mm; in assay [1] (setting [3]) it was 9 mm; in assay [1] (setting [4]) it was 17 mm; in assay [1] (setting [5]) it was 20 mm; in assay [1] (setting [6]) it was 12 mm; in assay [1] (setting [7]) it was 20 mm. The zone of inhibition at 1000 µg/mL is 21 mm with Epidermophyton floccosum (setting [2]), 7 mm in the assay on Epidermophyton floccosum (setting [3]), 21 mm with Epidermophyton floccosum (setting [4]) and 12 mm in the assay on Epidermophyton floccosum (setting [6]).

As for `CC(C)(C)C(=O)C(Oc1ccc(Cl)cc1)n1ccnc1` (centres unmarked) [compound 003], the zone of inhibition at 1000 µg/mL worked out at 5 mm in assay [1] (setting [2]); 0.5 mm in assay [1] (setting [3]); 9 mm in assay [1] (setting [4]); 10 mm in assay [1] (setting [5]); 16 mm in assay [1] (setting [7]); 3 mm with Epidermophyton floccosum (setting [2]). For the same compound, the zone of inhibition at 1000 µg/mL in the assay on Epidermophyton floccosum (setting [4]) was determined as 10 mm; with Epidermophyton floccosum (setting [5]) it was 9 mm; in the assay on Epidermophyton floccosum (setting [6]), 0.5 mm; in the assay with Epidermophyton floccosum (setting [7]), 17 mm.
